Where a name gives a salt, the structure may show the parent alone.
What was measured:
Assay in all cases: area under dose-response curve (cell viability) (AUC (arbitrary, % viability x log concentration)); higher = less sensitive (more viable)
Details in all cases: 4 days
PL-21 = tested on: PL-21
In short: (§1)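 Fourteen leukemia cell lines were plated on extracellular-matrix-coated 384-well plates. Drugs were added robotically the next day at eight concentrations spanning 4–5 logs within 10^–12–10^–4 M, tailored per drug, in duplicate. Viability was read with CellTiter-Glo after 4 days. The value is the area under a four-parameter sigmoid fitted to the duplicate-averaged dose-response.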

HL60 = tested on: HL60
In short: as §1

MOLM/16 = tested on: MOLM/16
In short: as §1

SKM1 = tested on: SKM1
In short: as §1

THP-1 = tested on: THP-1
In short: as §1

MOLM/13 = tested on: MOLM/13
In short: as §1

U937 = tested on: U937
In short: as §1

MV4.11 = tested on: MV4.11
In short: as §1

OCI-AML2 = tested on: OCI-AML2
In short: as §1

KG1 = tested on: KG1
In short: as §1

SMILES	area under dose-response curve (PL-21)	area under dose-response curve (HL60)	area under dose-response curve (MOLM/16)	area under dose-response curve (SKM1)	area under dose-response curve (THP-1)	area under dose-response curve (MOLM/13)	area under dose-response curve (U937)	area under dose-response curve (MV4.11)	area under dose-response curve (OCI-AML2)	area under dose-response curve (KG1)
CO[C@H]1C[C@@H]2CC[C@@H](C)[C@@](O)(O2)C(=O)C(=O)N2CCCC[C@H]2C(=O)O[C@H]([C@H](C)C[C@@H]2CC[C@@H](OC(=O)C(C)(CO)CO)[C@H](OC)C2)CC(=O)[C@H](C)/C=C(\C)[C@@H](O)[C@@H](OC)C(=O)[C@H](C)C[C@H](C)/C=C/C=C/C=C/1C [Temsirolimus]	435	592	399	436	543	445	302	385	477	455
Cn1cncc1[C@@](N)(c1ccc(Cl)cc1)c1ccc2c(c1)c(-c1cccc(Cl)c1)cc(=O)n2C [Tipifarnib]	441	490	208	425	263	482	313	378	365	374
CC[C@@]1(O)C(=O)OCc2c1cc1n(c2=O)Cc2cc3c(CN(C)C)c(O)ccc3nc2-1 [Topotecan HCl]	299	296	240	269	308	238	263	231	255	271
CC(C)C[C@@H](C(=O)N[C@H](C(=O)OC1CCCC1)c1ccccc1)[C@H](O)C(=O)NO [Tosedostat]	520	682	452	655	728	625	462	731	635	541
Cc1cc(Nc2cc(N3CCN(C)CC3)nc(Sc3ccc(NC(=O)C4CC4)cc3)n2)n[nH]1 [Tozasertib]	453	505	210	421	519	79	215	91	298	336
CC1=C(/C=C/C(C)=C/C=C/C(C)=C/C(=O)O)C(C)(C)CCC1 [Tretinoin]	523	506	574	410	505	449	452	338	440	577
CCCC(CCC)C(=O)O [Valproic acid]	640	703	682	688	656	690	692	720	684	651
COc1cc2/c(=N/c3ccc(Br)cc3F)nc[nH]c2cc1OCC1CCN(C)CC1 [Vandetanib]	636	675	669	678	724	619	730	635	627	626
Clc1ccc(Nc2nnc(Cc3ccncc3)c3ccccc23)cc1 [Vatalanib]	614	712	673	653	722	683	688	666	654	700
CC[C@]1(O)C[C@@H]2CN(CCc3c([nH]c4ccccc34)[C@@](C(=O)OC)(c3cc4c(cc3OC)N(C)[C@H]3[C@@](O)(C(=O)OC)[C@H](OC(C)=O)[C@]5(CC)C=CCN6CC[C@]43[C@@H]65)C2)C1 [Vinblastine sulfate]	9.49	50.7	23.2	61.1	20.9	6.96	4.36	4.8	5.01	74.8
CC[C@]1(O)C[C@H]2CN(CCc3c([nH]c4ccccc34)[C@@](C(=O)OC)(c3cc4c(cc3OC)N(C=O)[C@H]3[C@@](O)(C(=O)OC)[C@H](OC(C)=O)[C@]5(CC)C=CCN6CC[C@]43[C@@H]65)C2)C1 [Vincristine sulfate]	7.49	52.9	35.7	59.2	25.4	6.74	4.64	5.09	5.4	246
CCC1=C[C@@H]2CN(C1)Cc1c([nH]c3ccccc13)[C@@](C(=O)OC)(c1cc3c(cc1OC)N(C)[C@H]1[C@@](O)(C(=O)OC)[C@H](OC(C)=O)[C@]4(CC)C=CCN5CC[C@]31[C@@H]54)C2 [Vinorelbine tartrate]	297	295	311	329	315	298	136	315	328	373
O=C(CCCCCCC(=O)Nc1ccccc1)NO [Vorinostat]	496	534	463	584	541	502	508	447	450	561
COCC[n+]1c2c(n(Cc3cnccn3)c1C)C(=O)c1ccccc1C2=O [YM-155]	311	85.2	281	69.8	265	8.78	125	268	246	340
FC(F)c1nc2ccccc2n1-c1nc(N2CCOCC2)nc(N2CCOCC2)n1 [ZSTK-474]	533	599	515	563	589	609	541	603	554	623
